# Source: US6201025A, “N-aralkylaminotetralins as ligands for the neuropeptide Y Y5 receptor” (Ortho-McNeil Pharmaceutical, Inc., priority 1999, dated 2001)
# Structures can show the parent of a compound that is named as a salt.
# Tests used:
# [1] = target: T1, human neuropeptide Y5 receptor (Homo sapiens, UniProt Q15761); experiment: NPY5 HTS Centrifugation Assay: competition of 125I-PYY binding to membranes of NPY5-transfected HEK293 cells; conditions: 80 pM 125I-PYY, human NPY Y5 receptor, 1 hr room temperature; for inhibition at 3 µM: read-out: % Inhibition of 125I-PYY Binding @ 3 uM; for inhibition at 30 µM: read-out: % Inhibition of 125I-PYY Binding @ 30 uM
# T1 construct: expressed in transfected cells; cell membranes
# T1 sequence (Q15761 1-445): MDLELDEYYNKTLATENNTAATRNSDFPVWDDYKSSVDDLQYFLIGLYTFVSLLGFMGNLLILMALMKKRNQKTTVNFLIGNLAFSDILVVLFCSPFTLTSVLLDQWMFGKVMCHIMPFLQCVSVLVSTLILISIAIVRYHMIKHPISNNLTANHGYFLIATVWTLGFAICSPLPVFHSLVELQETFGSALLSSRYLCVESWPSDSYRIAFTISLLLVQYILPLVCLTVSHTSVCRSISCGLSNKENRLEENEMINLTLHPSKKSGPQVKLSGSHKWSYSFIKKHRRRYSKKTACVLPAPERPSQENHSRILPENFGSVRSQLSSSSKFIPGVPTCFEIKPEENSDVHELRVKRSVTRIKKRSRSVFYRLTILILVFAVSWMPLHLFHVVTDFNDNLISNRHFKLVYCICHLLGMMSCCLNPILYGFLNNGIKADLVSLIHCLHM
# Procedure: The compounds described in this invention were evaluated for binding to the human neuropeptide Y5 receptor.
# Stably transfected cells served as the source for the membranes for the NPY5 receptor binding assay.
# NPY5-transfected HEK293 cells were grown to confluence in 150 cm^2 culture dishes. […] Cells were then incubated in phosphate-buffered saline without Calcium and without Magnesium, supplemented with 2 mM EDTA. Cells were incubated for 10 minutes at room temperature and the cells were collected by repetitive pipeting. Cells were formed into pellets and then frozen at -80° C. until needed. Frozen pellets were homogenized with a polytron at full speed for 12 seconds in a homogenization buffer (20 mM Tris HCl, 5 mM EDTA, pH 7.4). Homogenates were centrifuged for 5 minutes at 4° C. at 200 g. Supernatants were transferred to corex tubes and centrifuged for 25 minutes at 28,000 g. Pellets were re-suspended in Binding (20 mM HEPES, 10 mM NaCl, 0.22 mM KH2 PO4, 1.3 mM CaCl2, 0.8 mM MgSO4, pH 7.4). Membranes were kept on ice until use.
# Compounds to be tested were prepared as 10x stocks in binding buffer and added first to assay tubes (RIA vials, Sarstedt). […] To each tube is added 100 μL of membranes and the mixture is agitated by pipeting 2 times. Samples are incubated for 1 hr at room temperature. Aluminum cast plates (Sarstedt) containing the vials are then centrifuged 10 minutes at 3200 rpm in a Sorvall RT6000. Supernatant is then aspirated. To each vial 400 μL PBS is added and this is then aspirated again. Vials are then put in carrier polypropylene 12×75 tube and counted in gamma counter (Packard). Non-specific binding is determined in the presence of 300 nM NPY.
# feeding in animals = conditions: cited from earlier work
# classic Y1 receptor = conditions: cited from earlier work
# [2] = test system: forskolin-stimulated cAMP production/levels in a neuroblastoma cell line; conditions: cited from earlier work
# live animals = conditions: icv or into the amygdala; cited from earlier work
# [3] = test system: animal models of learning; conditions: cited from earlier work
# luteinizing hormone (LH) = conditions: rodents; cited from earlier work
# food intake in rats = conditions: satiated rats; as little as one-billionth of a gram; cited from earlier work
# rodents = conditions: intracerebroventricularly; cited from earlier work
compound,measurement,setting,value
"COc1ccccc1C(=O)N[C@@H]1CCc2ccccc2[C@@H]1Cc1ccccc1 (relative stereo) [Compound 17, rac-cis-1-(Phenylmethyl)-N-(2-methoxyphenyl-2-oxomethyl)-1,2,3,4-tetrahydro-2-naphthalenamine monohydrobromide]",inhibition at 3 µM,[1],65%
same,inhibition at 30 µM,[1],98%
"COc1ccc2c(c1)[C@H](Cc1ccccc1)[C@H](NCCc1c[nH]c3ccccc13)CC2 (relative stereo) [Compound 18, rac-cis-1-(Phenylmethyl)-7-methoxy-N-(2-(3-indolyl)ethyl)-1,2,3,4-tetrahydro-2-naphthalenamine 0.8 fumarate 0.8 methanol 0.2 hydrate]",inhibition at 3 µM,[1],61%
same,inhibition at 30 µM,[1],104%
"c1ccc2c(c1)CC[C@@H](NCCc1c[nH]c3ccccc13)[C@H]2Cc1ccc2ccccc2c1 (relative stereo) [Compound 20, rac-cis-1-(2-Naphthylmethyl)-N-(2-(3-indolyl)ethyl)-1,2,3,4-tetrahydro-2-naphthalenamine hemifumarate methanol]",inhibition at 3 µM,[1],27%
same,inhibition at 30 µM,[1],99%
COc1ccccc1CC(=O)N[C@@H]1CCc2ccccc2[C@@H]1Cc1ccccc1 (relative stereo) [Compound 23],inhibition at 3 µM,[1],12%
same,inhibition at 30 µM,[1],47%
"COc1ccc(CCN[C@H]2CCc3ccccc3[C@H]2Cc2cccnc2)cc1OC (relative stereo) [Compound 28, rac-cis-1-(3-pyridylmethyl)-N-(2-(3,4-dimethoxyphenyl)ethyl-1,2,3,4-tetrahydro-2-naphthalenaminemonohydrobromide]",inhibition at 3 µM,[1],11%
same,inhibition at 30 µM,[1],66%
COc1ccc2c(c1)CC[C@@H](NCCc1ccccc1)[C@H]2Cc1ccccc1 (relative stereo) [Compound 29],inhibition at 3 µM,[1],33%
same,inhibition at 30 µM,[1],95%
COc1ccc(CCN[C@@H]2CCc3cc(OC)ccc3[C@@H]2Cc2ccccc2)cc1 (relative stereo) [Compound 30],inhibition at 3 µM,[1],62%
same,inhibition at 30 µM,[1],99%
COc1ccc2c(c1)CC[C@@H](NCCc1ccc(Cl)c(Cl)c1)[C@H]2Cc1ccccc1 (relative stereo) [Compound 31],inhibition at 3 µM,[1],31%
same,inhibition at 30 µM,[1],93%
COc1cccc(C[C@H]2c3ccc(OC)cc3CC[C@H]2NCCc2ccc(OC)c(OC)c2)c1 (relative stereo) [Compound 32],inhibition at 3 µM,[1],44%
same,inhibition at 30 µM,[1],97%
COc1ccc2c(c1)CC[C@@H](NCCc1ccc(OC)c(OC)c1)[C@H]2Cc1cccc2ccccc12 (relative stereo) [Compound 33],inhibition at 3 µM,[1],16%
same,inhibition at 30 µM,[1],73%
COc1ccc(C[C@H]2c3ccc(OC)cc3CC[C@H]2NCCc2ccc(OC)c(OC)c2)cc1 (relative stereo) [Compound 34],inhibition at 3 µM,[1],89%
same,inhibition at 30 µM,[1],103%
COc1ccc(CCN[C@@H]2CCc3ccccc3[C@@H]2Cc2ccccc2)cc1OC (relative stereo) [Compound 35],inhibition at 3 µM,[1],47%
same,inhibition at 30 µM,[1],99%
COc1ccc2c(c1)CC[C@@H](NCCc1ccc(Oc3ccccc3)cc1)[C@H]2Cc1ccccc1 (relative stereo) [Compound 36],inhibition at 3 µM,[1],35%
same,inhibition at 30 µM,[1],87%
COCCOc1ccc(CCN[C@H]2CCc3cc(OC)ccc3[C@H]2Cc2ccccc2)cc1 (relative stereo) [Compound 37],inhibition at 3 µM,[1],84%
NPY2-36: NPY fragment,feeding response,feeding in animals,potent inducer of feeding
same,binding at the classic Y1 receptor,classic Y1 receptor,poor binding
neuropeptide Y [NPY],effect on forskolin-stimulated cAMP production/levels,[2],inhibits forskolin-stimulated cAMP production/levels
same,effect in animal models of anxiety,live animals,produces anxiolytic effects
same,memory and performance scores,[3],improves memory and performance scores
same,release of luteinizing hormone (LH),luteinizing hormone (LH),mediates endocrine functions such as the release of luteinizing hormone (LH)
same,"effect on food intake, injected directly into the CNS",food intake in rats,causes satiated rats to overeat
same,anxiogenic effect,rodents,not anxiogenic
